Source: ChEMBL document CHEMBL3137667, “[Drug-induced liver injury; fourteenth updated edition of the bibliographic database of liver injuries and related drugs]” (Gastroenterol Clin Biol, 2004)

Legend:
[1] = human
[2] = human; remark: listed apart in the source
[3] = human; remark: listed apart in the source
[4] = human, serum, 4383 h
[5] = human; remark: listed apart in the source
[6] = human; remark: listed apart in the source
[7] = human, serum
[8] = human; remark: listed apart in the source
[9] = Highest frequency of acute liver toxicity observed during clinical trials, expressed as a percentage. [column '% AIGUE' in source]; settings: human
[10] = Highest frequency of moderate liver toxicity observed during clinical trials, expressed as a percentage. [column '% BIOL' in source]; settings: human
[11] = human; remark: listed apart in the source
[12] = human; remark: listed apart in the source
[13] = human; remark: listed apart in the source
[14] = human, serum; remark: listed apart in the source
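For Hepatotoxicity (association with vascular disease) in this document: count of indexed literature references reporting vascular liver injury in humans, e.g. peliosis hepatitis, hepatic veno-occlusive disease or Budd-Chiari syndrome.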
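For Hepatotoxicity (benign tumour) in this document: value is a count of indexed literature references citing a benign tumour confirmed by histopathology.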
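For Hepatotoxicity (choleostasis) in this document: human cholestatic liver injury, shown by histopathology or by peak ALT or AST elevation over alkaline phosphatase ratio below 2, value counts indexed literature reports.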
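For Hepatotoxicity (chronic liver disease) in this document: chronic liver injury confirmed by histopathology or persistently raised serum aminotransferase activity beyond 6 months, value given as the count of indexed literature references.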
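For Hepatotoxicity (cirrhosis) in this document: value is a count of indexed literature references reporting cirrhosis confirmed by histopathology.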
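For Hepatotoxicity (cytolytic) in this document: human cytolytic liver injury, shown by histopathology or by a ratio above 5 of peak ALT or AST elevation to alkaline phosphatase elevation, value counts indexed references.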
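For Hepatotoxicity (granulomatous hepatitis) in this document: value is a count of indexed literature references reporting granulomatous liver disease confirmed by histopathology.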
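For Hepatotoxicity (malignant tumour) in this document: malignant tumour confirmed by histopathology, value gives the count of indexed literature references reporting it.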
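For Hepatotoxicity (severe hepatitis) in this document: human clinical data: severe hepatitis, meaning potentially life-threatening liver failure or clinically observed cases, the value counts how many indexed literature references report it.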
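For Hepatotoxicity (steatosis) in this document: steatosis confirmed by histopathology, value is the count of indexed references.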

Compound	Hepatotoxicity (cytolytic) ([1]; Liver)	Hepatotoxicity (benign tumour) [2]	Hepatotoxicity (malignant tumour) [3]	Hepatotoxicity (chronic liver disease) [4]	Hepatotoxicity (choleostasis) ([5]; Liver)	Hepatotoxicity (cirrhosis) [6]	Hepatotoxicity (moderate) [7]	Hepatotoxicity (severe hepatitis) ([8]; Liver)	Hepatotoxicity (acute) ([9]; Liver)	Hepatotoxicity (moderate) ([10]; Liver)	Hepatotoxicity (steatosis) [11]	Hepatotoxicity (association with vascular disease) [12]	Hepatotoxicity (granulomatous hepatitis) ([13]; Liver)	Hepatotoxicity (acute) [14]	Hepatotoxicity (cytolytic) [1]	Hepatotoxicity (choleostasis) [5]	Hepatotoxicity (severe hepatitis) [8]	Hepatotoxicity (acute) [9]	Hepatotoxicity (moderate) [10]	Hepatotoxicity (granulomatous hepatitis) [13]
NC(CO)(CO)CO [TROMETHAMINE]	2	0	0	0	0	0	0	2	0%	0%	0	0	0	2	–	–	–	–	–	–
CCCC[C@@H]1CC(=O)[C@]2(O)O[C@@H]3[C@@H](NC)[C@@H](O)[C@@H](NC)[C@H](O)[C@H]3O[C@@H]2O1 [TROSPECTOMYCIN]	–	0	0	0	–	0	2	–	–	–	0	0	–	0	0	0	0	0%	33.3%	0
CC(C)C[C@H](NC(=O)[C@@H](O)[C@H](N)Cc1ccccc1)C(=O)O [UBENIMEX]	–	0	0	0	–	0	1	–	–	–	0	0	–	0	0	0	0	0%	2.4%	0
CC(C)[C@H](N)C(=O)OCC(CO)OCn1cnc2c(=O)nc(N)[nH]c21 (some centres not stated) [VALGANCICLOVIR]	–	0	0	0	–	0	1	–	–	–	0	0	–	0	0	0	0	0%	3%	0
COc1ccc(C(=O)N2CCN(c3ccc4c(c3)CCC(=O)N4)CC2)cc1OC [VESNARINONE]	–	0	0	0	–	0	1	–	–	–	0	0	–	0	0	0	0	0%	0.4%	0
CCOc1ccccc1OCC1CNCCO1 (configuration not stated) [VILOXAZINE]	1	0	0	0	0	0	2	0	0%	0%	0	0	0	1	–	–	–	–	–	–
Cc1ncc(-c2csc(N=C(N)N)n2)[nH]1 [ZALTIDINE]	–	0	0	0	–	0	1	–	–	–	0	0	–	1	1	0	0	8%	94%	0
O=C(O)Cn1c(=O)n(Cc2ccc(Br)cc2F)c(=O)c2ccc(Cl)cc21 [ZENARESTAT]	–	0	0	0	–	0	1	–	–	–	0	0	–	0	0	0	0	0%	9.5%	0
